# Laboratory results as given in article PMC10426190 (Breast Cancer Research : BCR, 2023).
# Test system: E2-induced (ER target) genes in MCF7
# Experiment: Gene expression analysis by RNA-sequencing in MCF7 with E2 stimulation
# Format: cell-based, human
# Conditions: 24 h
# Experimental: MCF7 were cultured in hormone deprivation media (with 10% charcoal-stripped FBS) for at least 3 days before assay. Trypsinized cells were seeded in a 12-well plate, stimulated with 1 nM β-estradiol (E2), and treated with/without 1 μM compounds for 24 h. Total RNA was extracted using the TRIzol reagent according to the manufacturer’s protocol. RNA purity and quantification were evaluated using the NanoDrop 2000 spectrophotometer (Thermo Scientific, USA). RNA integrity was assessed using the Agilent 2100 Bioanalyzer (Agilent Technologies, Santa Clara, CA, USA). Then the libraries were constructed using TruSeq Stranded mRNA LT Sample Prep Kit (Illumina, San Diego, CA, USA) according to the manufacturer’s instructions. The transcriptome sequencing and analysis were conducted by OE Biotech Co., Ltd. (Shanghai, China). The libraries were sequenced on an Illumina HiSeq X Ten platform and 150 bp paired-end reads were generated. […] Raw data (raw reads) of FASTq format were firstly processed using Trimmomatic and the low-quality reads were removed to obtain the clean reads. […] The clean reads were mapped to the human genome (GRCh38) using HISAT2 [27]. FPKM [28] of each gene was calculated using Cufflinks, and the read counts of each gene were obtained by HTSeqcount. Differential expression analysis was performed using the DESeq (2012) R package.
# MCF7 with hormone-deprived pre-treatment were administrated ER ligands or not present with 1 nM E2 stimulation for 24 h incubation in a 12-well plate. Total mRNA was isolated from treated cells and sequenced on an Illumina HiSeq X Ten platform. FPKM of each gene was calculated using Cufflinks and Differential expression genes analysis by using the DESeq (2012) R package. […] T47D EFM-19 and HCC1500 cells were grown in RPMI media supplemented with 10% charcoal-stripped FBS for 14 days and then treated with ER antagonist (1 μM) or DMSO in the presence E2 (1nM) stimulation for 24 h before RNA isolation and gene expression analysis as described in methods. […] The uteruses were harvested 24 h after the final doses and stained by toluidine blue. Endometrial height was assessed from the basement membrane to the luminal border (scale bar in green lines: 200 μm), Arrows indicate the uterine epithelium (e).
structure (smiles),measurement,setting,value
CC/C(=C(\c1ccc(O)cc1)c1ccc(OCCN(C)C)cc1)c1ccccc1 [4-OH-tamoxifen],"percentage of E2-induced genes suppressed, Relative to 1 nM E2 Down%","MCF7, 1 nM E2 + 1 μM compound",59.1%
same,"percentage of genes upregulated, Relative to 1 nM E2 Up%","MCF7, 1 nM E2 + 1 μM compound, foldchange > twofold",5.8%
same,ACTG2 expression,"MCF7, 1 nM E2 ± 1 μM compound",2.33 FPKM
same,ADCY1 expression,"MCF7, 1 nM E2 ± 1 μM compound",19.17 FPKM
same,AGR3 expression,"MCF7, 1 nM E2 ± 1 μM compound",25.86 FPKM
same,AMZ1 expression,"MCF7, 1 nM E2 ± 1 μM compound",3.21 FPKM
same,ANLN expression,"MCF7, 1 nM E2 ± 1 μM compound",22.77 FPKM
same,ARHGAP36 expression,"MCF7, 1 nM E2 ± 1 μM compound",1.42 FPKM
same,ASCL1 expression,"MCF7, 1 nM E2 ± 1 μM compound",2.50 FPKM
same,ASF1B expression,"MCF7, 1 nM E2 ± 1 μM compound",33.57 FPKM
same,ASMTL-2 expression,"MCF7, 1 nM E2 ± 1 μM compound",3.33 FPKM
same,ATAD2 expression,"MCF7, 1 nM E2 ± 1 μM compound",29.15 FPKM
same,ATRNL1 expression,"MCF7, 1 nM E2 ± 1 μM compound",0.29 FPKM
same,AURKB expression,"MCF7, 1 nM E2 ± 1 μM compound",18.53 FPKM
same,BIRC5 expression,"MCF7, 1 nM E2 ± 1 μM compound",26.74 FPKM
same,BLM expression,"MCF7, 1 nM E2 ± 1 μM compound",3.14 FPKM
same,BMPER expression,"MCF7, 1 nM E2 ± 1 μM compound",0.18 FPKM
same,BRCA1 expression,"MCF7, 1 nM E2 ± 1 μM compound",3.58 FPKM
same,BRCA2 expression,"MCF7, 1 nM E2 ± 1 μM compound",2.51 FPKM
same,BRIP1 expression,"MCF7, 1 nM E2 ± 1 μM compound",22.65 FPKM
same,BUB1B expression,"MCF7, 1 nM E2 ± 1 μM compound",9.15 FPKM
same,C1orf226 expression,"MCF7, 1 nM E2 ± 1 μM compound",5.19 FPKM
same,C5AR2 expression,"MCF7, 1 nM E2 ± 1 μM compound",2.33 FPKM
same,CA2 expression,"MCF7, 1 nM E2 ± 1 μM compound",157.09 FPKM
same,CA12 expression,"MCF7, 1 nM E2 ± 1 μM compound",46.02 FPKM
same,CALCR expression,"MCF7, 1 nM E2 ± 1 μM compound",4.03 FPKM
same,CAV1 expression,"MCF7, 1 nM E2 ± 1 μM compound",5.56 FPKM
same,CCN5 expression,"MCF7, 1 nM E2 ± 1 μM compound",29.67 FPKM
same,CCNA2 expression,"MCF7, 1 nM E2 ± 1 μM compound",17.16 FPKM
same,CCNE2 expression,"MCF7, 1 nM E2 ± 1 μM compound",7.22 FPKM
same,CD99-2 expression,"MCF7, 1 nM E2 ± 1 μM compound",0.97 FPKM
same,CDC6 expression,"MCF7, 1 nM E2 ± 1 μM compound",6.08 FPKM
same,CDC25A expression,"MCF7, 1 nM E2 ± 1 μM compound",2.63 FPKM
same,CDC45 expression,"MCF7, 1 nM E2 ± 1 μM compound",5.79 FPKM
same,CDCA3 expression,"MCF7, 1 nM E2 ± 1 μM compound",6.21 FPKM
same,CDCA4 expression,"MCF7, 1 nM E2 ± 1 μM compound",15.28 FPKM
same,CDCA5 expression,"MCF7, 1 nM E2 ± 1 μM compound",13.04 FPKM
same,CDCA7 expression,"MCF7, 1 nM E2 ± 1 μM compound",2.77 FPKM
same,CDH26 expression,"MCF7, 1 nM E2 ± 1 μM compound",0.69 FPKM
same,CDK1 expression,"MCF7, 1 nM E2 ± 1 μM compound",15.34 FPKM
same,CDT1 expression,"MCF7, 1 nM E2 ± 1 μM compound",21.06 FPKM
same,CENPI expression,"MCF7, 1 nM E2 ± 1 μM compound",3.21 FPKM
same,CENPU expression,"MCF7, 1 nM E2 ± 1 μM compound",5.41 FPKM
same,CHAF1B expression,"MCF7, 1 nM E2 ± 1 μM compound",2.31 FPKM
same,CHEK1 expression,"MCF7, 1 nM E2 ± 1 μM compound",2.63 FPKM
same,CKS1B expression,"MCF7, 1 nM E2 ± 1 μM compound",49.15 FPKM
same,CLSPN expression,"MCF7, 1 nM E2 ± 1 μM compound",1.96 FPKM
same,COL12A1 expression,"MCF7, 1 nM E2 ± 1 μM compound",3.75 FPKM
same,CXCL12 expression,"MCF7, 1 nM E2 ± 1 μM compound",3.86 FPKM
same,DDIAS expression,"MCF7, 1 nM E2 ± 1 μM compound",4.48 FPKM
same,DHRSX-2 expression,"MCF7, 1 nM E2 ± 1 μM compound",1.54 FPKM
same,DKK1 expression,"MCF7, 1 nM E2 ± 1 μM compound",41.67 FPKM
same,DNA2 expression,"MCF7, 1 nM E2 ± 1 μM compound",3.39 FPKM
same,DPYSL5 expression,"MCF7, 1 nM E2 ± 1 μM compound",0.63 FPKM
same,DSCC1 expression,"MCF7, 1 nM E2 ± 1 μM compound",4.49 FPKM
same,DTL expression,"MCF7, 1 nM E2 ± 1 μM compound",2.21 FPKM
same,E2F1 expression,"MCF7, 1 nM E2 ± 1 μM compound",8.56 FPKM
same,E2F2 expression,"MCF7, 1 nM E2 ± 1 μM compound",1.96 FPKM
same,E2F7 expression,"MCF7, 1 nM E2 ± 1 μM compound",3.12 FPKM
same,E2F8 expression,"MCF7, 1 nM E2 ± 1 μM compound",4.23 FPKM
same,ELOVL2 expression,"MCF7, 1 nM E2 ± 1 μM compound",7.72 FPKM
same,EME1 expression,"MCF7, 1 nM E2 ± 1 μM compound",4.92 FPKM
same,ERCC6L expression,"MCF7, 1 nM E2 ± 1 μM compound",1.82 FPKM
same,ESCO2 expression,"MCF7, 1 nM E2 ± 1 μM compound",2.98 FPKM
same,ESPL1 expression,"MCF7, 1 nM E2 ± 1 μM compound",7.94 FPKM
same,EXO1 expression,"MCF7, 1 nM E2 ± 1 μM compound",3.27 FPKM
same,FAM20A expression,"MCF7, 1 nM E2 ± 1 μM compound",2.46 FPKM
same,FAM111B expression,"MCF7, 1 nM E2 ± 1 μM compound",4.32 FPKM
same,FANCA expression,"MCF7, 1 nM E2 ± 1 μM compound",10.70 FPKM
same,FANCD2 expression,"MCF7, 1 nM E2 ± 1 μM compound",6.23 FPKM
same,FANCI expression,"MCF7, 1 nM E2 ± 1 μM compound",20.35 FPKM
same,FEN1 expression,"MCF7, 1 nM E2 ± 1 μM compound",31.76 FPKM
same,FIGNL1 expression,"MCF7, 1 nM E2 ± 1 μM compound",2.46 FPKM
same,FKBP4 expression,"MCF7, 1 nM E2 ± 1 μM compound",79.90 FPKM
same,GATA4 expression,"MCF7, 1 nM E2 ± 1 μM compound",0.08 FPKM
same,GFRA1 expression,"MCF7, 1 nM E2 ± 1 μM compound",84.37 FPKM
same,GINS1 expression,"MCF7, 1 nM E2 ± 1 μM compound",11.19 FPKM
same,GINS2 expression,"MCF7, 1 nM E2 ± 1 μM compound",12.84 FPKM
same,GJA1 expression,"MCF7, 1 nM E2 ± 1 μM compound",0.31 FPKM
same,GLA expression,"MCF7, 1 nM E2 ± 1 μM compound",41.63 FPKM
same,GP1BB expression,"MCF7, 1 nM E2 ± 1 μM compound",0.99 FPKM
same,GPR68 expression,"MCF7, 1 nM E2 ± 1 μM compound",0.38 FPKM
same,GPRIN1 expression,"MCF7, 1 nM E2 ± 1 μM compound",4.22 FPKM
same,GREB1 expression,"MCF7, 1 nM E2 ± 1 μM compound",4.76 FPKM
same,H2AX expression,"MCF7, 1 nM E2 ± 1 μM compound",94.16 FPKM
same,HBB expression,"MCF7, 1 nM E2 ± 1 μM compound",2.54 FPKM
same,HELLS expression,"MCF7, 1 nM E2 ± 1 μM compound",3.37 FPKM
same,HEY2 expression,"MCF7, 1 nM E2 ± 1 μM compound",1.93 FPKM
same,HMGB2 expression,"MCF7, 1 nM E2 ± 1 μM compound",125.20 FPKM
same,IGFBP4 expression,"MCF7, 1 nM E2 ± 1 μM compound",56.87 FPKM
same,IGSF1 expression,"MCF7, 1 nM E2 ± 1 μM compound",3.37 FPKM
same,ITGA2B expression,"MCF7, 1 nM E2 ± 1 μM compound",0.44 FPKM
same,KIF11 expression,"MCF7, 1 nM E2 ± 1 μM compound",13.08 FPKM
